Results taken from paper PMC8116058, “De novo macrocyclic peptides dissect energy coupling of a heterodimeric ABC transporter by multimode allosteric inhibition” (eLife, 2021).
Positions of bridges follow the written chain, without caps; N, C: chain ends. Non-standard residues stand in square brackets, D forms with d. Residues, ends and D or L forms follow the SMILES beside them. *: point of attachment. 5FAM = O=C1OC2(c3ccc(O)cc3Oc3cc(O)ccc32)c2ccc(C(=O)*)cc21; βAla = NCCC(=O)O

Biological target: T1, TmrAB reconstituted in liposomes (Thermus thermophilus, UniProt Q72J04+Q72J05)
T1 sequence (Q72J05 1-600): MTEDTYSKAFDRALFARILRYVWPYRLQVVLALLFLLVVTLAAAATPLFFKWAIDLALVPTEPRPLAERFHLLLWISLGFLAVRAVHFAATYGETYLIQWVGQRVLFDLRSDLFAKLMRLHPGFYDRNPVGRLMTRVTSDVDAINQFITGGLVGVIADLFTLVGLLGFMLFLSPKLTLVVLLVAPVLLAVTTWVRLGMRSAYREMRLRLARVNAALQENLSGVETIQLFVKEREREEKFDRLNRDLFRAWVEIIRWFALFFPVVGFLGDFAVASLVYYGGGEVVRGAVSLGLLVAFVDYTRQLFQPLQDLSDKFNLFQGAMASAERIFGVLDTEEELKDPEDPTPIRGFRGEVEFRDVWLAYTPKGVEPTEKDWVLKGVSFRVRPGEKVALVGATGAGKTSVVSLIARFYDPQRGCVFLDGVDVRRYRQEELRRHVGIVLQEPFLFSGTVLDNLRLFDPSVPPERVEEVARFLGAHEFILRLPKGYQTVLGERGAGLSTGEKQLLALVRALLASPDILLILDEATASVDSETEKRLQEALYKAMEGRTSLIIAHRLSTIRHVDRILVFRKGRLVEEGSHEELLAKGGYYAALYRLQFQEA
T1 sequence (Q72J04 1-578): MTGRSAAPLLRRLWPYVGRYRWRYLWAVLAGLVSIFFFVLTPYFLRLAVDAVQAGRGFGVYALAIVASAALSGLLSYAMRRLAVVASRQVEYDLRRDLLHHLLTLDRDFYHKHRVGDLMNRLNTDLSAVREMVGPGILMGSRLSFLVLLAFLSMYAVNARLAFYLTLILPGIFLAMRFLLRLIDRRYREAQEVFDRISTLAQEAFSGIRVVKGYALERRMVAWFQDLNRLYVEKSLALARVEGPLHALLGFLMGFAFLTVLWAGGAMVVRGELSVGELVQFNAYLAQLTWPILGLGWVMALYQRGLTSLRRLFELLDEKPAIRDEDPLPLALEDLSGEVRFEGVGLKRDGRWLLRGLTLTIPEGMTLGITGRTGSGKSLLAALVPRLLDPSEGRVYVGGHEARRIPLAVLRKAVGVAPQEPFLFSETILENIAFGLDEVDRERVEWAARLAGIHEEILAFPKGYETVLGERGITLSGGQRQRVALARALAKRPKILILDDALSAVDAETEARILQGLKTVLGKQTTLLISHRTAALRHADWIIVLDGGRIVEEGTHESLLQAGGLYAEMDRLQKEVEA
Test: Filter-based transport assay, CP^Fs tested as substrates
Format: biochemical
Details: TmrAB 0.4 µM in liposomes, C4F 3 µM or CP^F 1 µM, 5 min 45°C
Text: In order to investigate the functional impact of CPs, we examined the effect of the CPs on ATP hydrolysis and substrate transport of TmrAB (Figure 3A). We reconstituted TmrAB in liposomes and first assayed the ATPase activity. […] We next set out to investigate peptide transport by TmrAB using a filter-based transport assay. To investigate whether CPs are recognized as substrates by TmrAB, we added fluorescein-labeled CP^Fs and examined ATP-dependent translocation. In contrast to the linear substrate peptide C4F, none of the CP^Fs were transported by TmrAB (Figure 3C). Next, we examined ATP-dependent transport of C4F peptides in the presence and absence of the different CPs.
Figure 3. CP^Fs are potent inhibitors of ATP turnover and substrate transport. (A) Experimental scheme of ATP hydrolysis and peptide transport by TmrAB. (B) CP^Fs inhibit ATP hydrolysis. TmrAB in liposomes (100 nM) was incubated with ATP (2 mM, traced with [γ^32P]-ATP), and MgCl2 (5 mM) in the presence and absence of CP^Fs (1 µM) for 10 min at 45°C. Autohydrolysis was determined in the absence of TmrAB, and background turnover was conducted in the presence of EDTA (10 mM). Release of [γ^32P] was quantified by thin layer chromatography. (C) CP^Fs are not transported by TmrAB. TmrAB (0.4 µM) reconstituted in liposomes was incubated with C4F peptide (3 µM) or CP^Fs (1 µM) in the presence of ATP/ADP (3 mM) and MgCl2 (5 mM) for 5 min at 45°C. Since CP^Fs were dissolved in maximal 0.5% (v/v) of DMSO, C4F plus 0.5% DMSO served as control. Proteoliposomes were washed on filter plates, and transported peptides were quantified at λex/em = 485/520 nm. (D) Inhibition of substrate translocation. TmrAB in liposomes (0.4 µM) were incubated with C4F peptide (3 µM), ATP/ADP (3 mM), and MgCl2 (5 mM) in the presence and absence of CP^Fs (1 µM) for 15 min at 45°C. Transported peptides were quantified as described in (C). In (B–C), mean values ± SD (n = 3) are shown. Figure 3—source data 1. Source data for Figure 3.
TmrAB in liposomes (0.4 µM) were incubated with ATP/ADP (3 mM), MgCl2 (5 mM), C4F peptide (3 µM), and CP^Fs (1 µM) for 15 min at 45°C. […] Proteoliposomes were solubilized by adding SDS (1% [v/v]) in transport buffer for 10 min at 20°C. Transported peptides were quantified at λex/em = 485/520 nm using a microplate reader (CLARIOstar, BMG LABTECH).

SMILES | Transported peptide (ADP 3 mM (background)) [µmol·g/min] | Transported peptide (ATP 3 mM) [µmol·g/min]
CC[C@H](C)[C@@H]1NC(=O)[C@H]([C@@H](C)O)NC(=O)[C@H](CC(C)C)NC(=O)[C@H](Cc2c[nH]c3ccccc23)NC(=O)[C@H](Cc2ccccc2)NC(=O)[C@H](CC(N)=O)NC(=O)[C@H](CCC(=O)O)NC(=O)[C@H](CC(C)C)NC(=O)[C@H](CS)NC(=O)[C@H](Cc2c[nH]cn2)NC(=O)[C@H](CO)NC(=O)[C@@H](Cc2ccc(O)cc2)NC(=O)CSC[C@@H](C(=O)NCC(=O)N[C@@H](CO)C(=O)NCCC(=O)NCCC(=O)N[C@@H](CCCNC(=N)N)C(=O)N[C@@H](CCCCNC(=O)c2ccc3c(c2)C(=O)OC32c3ccc(O)cc3Oc3cc(O)ccc32)C(N)=O)NC(=O)[C@H](CC(C)C)NC1=O [CP6] ({CH2CO}-[dY]SHCLENFWLTILCGS[βAla][βAla]RK(5FAM)-NH2; thioether N-14) | 0.38 | 0.33
CC(C)C[C@@H]1NC(=O)[C@H](Cc2ccccc2)NC(=O)CNC(=O)[C@H](CO)NC(=O)[C@H](Cc2ccccc2)NC(=O)[C@H](CC(=O)O)NC(=O)[C@@H]2CCCN2C(=O)[C@H]([C@@H](C)O)NC(=O)[C@@H](Cc2ccc(O)cc2)NC(=O)CSC[C@@H](C(=O)NCC(=O)N[C@@H](CO)C(=O)NCCC(=O)NCCC(=O)N[C@@H](CCCNC(=N)N)C(=O)N[C@@H](CCCCNC(=O)c2ccc3c(c2)C(=O)OC32c3ccc(O)cc3Oc3cc(O)ccc32)C(N)=O)NC(=O)[C@H](C)NC(=O)[C@H](CC(N)=O)NC(=O)[C@H](CCCNC(=N)N)NC(=O)[C@H](CC(C)C)NC(=O)[C@H](Cc2ccccc2)NC(=O)[C@H](C)NC1=O [CP12] ({CH2CO}-[dY]TPDFSGFLAFLRNACGS[βAla][βAla]RK(5FAM)-NH2; thioether N-16) | 0.55 | 0.44
CC[C@H](C)[C@@H]1NC(=O)[C@H](Cc2c[nH]c3ccccc23)NC(=O)[C@H](CC(N)=O)NC(=O)[C@H](C)NC(=O)[C@H](CO)NC(=O)[C@@H]2CCCN2C(=O)[C@H](CC(=O)O)NC(=O)[C@@H](Cc2ccc(O)cc2)NC(=O)CSC[C@@H](C(=O)NCC(=O)N[C@@H](CO)C(=O)NCCC(=O)NCCC(=O)N[C@@H](CCCNC(=N)N)C(=O)N[C@@H](CCCCNC(=O)c2ccc3c(c2)C(=O)OC32c3ccc(O)cc3Oc3cc(O)ccc32)C(N)=O)NC(=O)[C@H]([C@@H](C)O)NC(=O)[C@H](CC(C)C)NC(=O)[C@H](CC(C)C)NC(=O)[C@H](C(C)C)NC(=O)[C@H](CC(C)C)NC1=O [CP13] ({CH2CO}-[dY]DPSANWILVLLTCGS[βAla][βAla]RK(5FAM)-NH2; thioether N-14; C-terminus assumed) | 0.28 | 0.33
CC(C)[C@@H]1NC(=O)[C@H](Cc2ccccc2)NC(=O)[C@@H]2CCCN2C(=O)[C@H](CC(N)=O)NC(=O)[C@H](Cc2c[nH]c3ccccc23)NC(=O)[C@H](C(C)C)NC(=O)[C@H](Cc2ccc(O)cc2)NC(=O)[C@H](Cc2ccccc2)NC(=O)[C@@H](Cc2ccc(O)cc2)NC(=O)CSC[C@@H](C(=O)NCC(=O)N[C@@H](CO)C(=O)NCCC(=O)NCCC(=O)N[C@@H](CCCNC(=N)N)C(=O)N[C@@H](CCCCNC(=O)c2ccc3c(c2)C(=O)OC32c3ccc(O)cc3Oc3cc(O)ccc32)C(N)=O)NC(=O)[C@H](CCCCN)NC(=O)[C@H](Cc2ccccc2)NC1=O [CP14] ({CH2CO}-[dY]FYVWNPFVFKCGS[βAla][βAla]RK(5FAM)-NH2; thioether N-12; C-terminus assumed) | 0.25 | 0.26
